Test results reported in EP0033088A2, “Antimycotic agents” (BAYER AG, priority 1980, dated 1981).

Tested on: Candida
Experiment: Antimicrobial in-vivo activity (oral) in mouse candidosis
Set-up: species or system Mäuse vom Typ SPF-DF1
Details: mice infected i.v. with Candida cells; 50 to 100 mg/kg oral, one hour before and seven hours after infection; compared with prior-art compounds; untreated survival about 5 % on day 6
Method: Mäuse vom Typ SPF-DF1 wurden intravenös mit 1 bis 2 x 10^6 logarytmisch wachsenden Candida-Zellen, die in physiologischer Kochsalzlösung suspendiert waren, infiziert. Eine Stunde vor und sieben Stunden nach der Infektion werden die Tiere mit jeweils 50 bis 100 mg/kg Körpergewicht der Präparate oral behandelt.
Unbehandelte Tiere starben 3 bis 6 Tage post infektionem. Die Überlebensrate am 6. Tag post infektionem betrug bei unbehandelten Kontrolltieren etwa 5 %.

| SMILES | in-vivo-Wirksamkeit |
| --- | --- |
| OC(c1ccc(Cl)cc1Cl)C(C(O)C(Cl)(Cl)Cl)n1cncn1 (centres unmarked) [Beispiel 14] | denjenigen der Verbindungen des Standes der Technik überlegen |
| CC(C)(C)C(O)C(C(O)C(C)(C)Cl)n1cncn1 (centres unmarked) [Beispiel 4] | denjenigen der Verbindungen des Standes der Technik überlegen |
| CC(Cl)C(Cl)(Cl)C(O)C(C(O)C(C)(C)CF)n1cncn1 (centres unmarked) [Beispiel 11] | denjenigen der Verbindungen des Standes der Technik überlegen |
| OC(c1ccc(F)cc1)C(C(O)C(Cl)(Cl)Cl)n1cncn1 (centres unmarked) [Beispiel 15] | denjenigen der Verbindungen des Standes der Technik überlegen |
| OC(c1ccc(Cl)cc1)C(C(O)C(Cl)(Cl)Cl)n1cncn1 (centres unmarked) [Beispiel 12] | denjenigen der Verbindungen des Standes der Technik überlegen |
| CC(Cl)C(Cl)(Cl)C(O)C(C(O)C(C)(C)C)n1cncn1 (centres unmarked) [Beispiel 21] | denjenigen der Verbindungen des Standes der Technik überlegen |
| CC(C)(C)C(O)C(C(O)C=C(Cl)Cl)n1cncn1 (centres unmarked) [Beispiel 6] | denjenigen der Verbindungen des Standes der Technik überlegen |
| CC(C)(C)C(O)C(C(O)C(Cl)(Cl)Cl)n1cncn1 (centres unmarked) [Beispiel 1, 1,1,1-Trichlor-3-(1,2,4-triazol-1-yl)-5,5-dimethyl-hexan-2,4-diol] | denjenigen der Verbindungen des Standes der Technik überlegen |
